The values that follow come from patent US20250320206A1, “STAT6 DEGRADERS” (Gilead Sciences, Inc., priority 2024, published 2025).

For the assay, the target named is T1, STAT6 (Homo sapiens, UniProt P42226).
T1 construct: These cells express endogenous STAT6; host or cells: HeLa LgBiT clone 4.14
T1 sequence (P42226 1-847): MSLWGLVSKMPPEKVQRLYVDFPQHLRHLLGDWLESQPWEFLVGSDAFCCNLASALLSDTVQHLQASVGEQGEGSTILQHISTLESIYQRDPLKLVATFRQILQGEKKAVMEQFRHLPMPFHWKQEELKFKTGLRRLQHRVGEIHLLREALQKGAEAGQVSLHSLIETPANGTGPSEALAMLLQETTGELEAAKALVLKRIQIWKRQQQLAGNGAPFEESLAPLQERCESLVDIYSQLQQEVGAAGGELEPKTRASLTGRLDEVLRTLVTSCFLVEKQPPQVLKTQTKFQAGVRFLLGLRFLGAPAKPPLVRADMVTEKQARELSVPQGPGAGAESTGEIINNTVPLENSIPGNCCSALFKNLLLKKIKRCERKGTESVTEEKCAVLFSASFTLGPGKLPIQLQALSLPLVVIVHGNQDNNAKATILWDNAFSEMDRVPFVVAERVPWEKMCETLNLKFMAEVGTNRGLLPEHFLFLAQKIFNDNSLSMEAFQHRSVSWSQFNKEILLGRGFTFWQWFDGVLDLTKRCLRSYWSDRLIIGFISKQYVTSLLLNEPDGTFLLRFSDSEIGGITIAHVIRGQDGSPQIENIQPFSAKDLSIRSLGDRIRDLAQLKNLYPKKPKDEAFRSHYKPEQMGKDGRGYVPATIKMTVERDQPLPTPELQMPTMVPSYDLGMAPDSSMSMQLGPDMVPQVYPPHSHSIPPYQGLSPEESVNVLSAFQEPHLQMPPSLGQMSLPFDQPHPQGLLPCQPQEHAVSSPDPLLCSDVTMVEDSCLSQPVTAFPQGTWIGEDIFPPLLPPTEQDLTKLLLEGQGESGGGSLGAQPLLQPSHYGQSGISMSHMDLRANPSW
Put plainly: Stat6 Degrader Assay (HiBiT based, HeLa LgBiT clone 4.14). Particulars: HeLa LgBiT clone 4.14 HiBiT-STAT6, 4-24 h incubation; values given for compounds with >80% Emax; geometric mean; read-out: STAT6 degradation DC50. The assay is classed as cell-based. The method, then: This was a HiBit based assay. A HeLa cell line stably transfected with a small protein, LgBit (Large Bit) was obtained from Promega. These cells express endogenous STAT6. A small 11 amino acid gene sequence (HiBiT) was inserted in the STAT6 gene using CRISPR technology. Once STAT6 protein is expressed in the cells, the HiBiT sequence will bind the LgBit in the cells resulting in a functional NanoBiT protein, giving a luminescent tag to STAT6, see FIG. 2.
Single cell clones were prepared and the clone 4.14 was selected for the assay based on that clone showing high luminescence, high STAT6 phosphorylation upon stimulation with IL-4, and inhibition of luminescence when cells were treated with STAT6 siRNA.
HeLa LgBiT clone 4.14 cells were suspended in DMEM with 10% FCS, 1% Pen/Strep, Na-pyrovate and Hygromycin B, at a concentration of 1.25*105 cells pr mL. 5000 cells were added pr well of a 384 well plate and 20 nL of compound was added by Echo® liquid handler. NN6394A (terfenadine, a toxic compound) was added to control wells at 50 μM concentration to establish the assay window. In these wells the cells are dead which equals 100% degradation of STAT6.
After 4-24 h of incubation at 37° C. under 5% CO2/95% air, 5 μL substrate (Nano-GLO®) was added to the wells and the plates were centrifuged and incubated for 0.5 h.
The luminescence in the wells as a measure of non-degraded STAT6 was measured in a plate reader (BMG Pherastar FSX).
The dose-response curves for Examples 3u208, 3u246, 3u118, 3u119, 3u120, and 3u74 are shown in FIG. 1 (where percent degradation is plotted vs. test compound concentration in M on a log-scale).
(HiBiT is a short tag that completes a luciferase, so light tracks the accessible tagged protein.)
On to `CNc1ccn(-c2ccnc3c2cc(CN2CC=C(c4c(F)cc(C(=O)N5CCC(CN6CCN(Cc7ccc8c(c7)n(C)c(=O)n8[C@H]7CCC(=O)NC7=O)C[C@@H]6C)CC5)cc4F)CC2)n3C)c(=O)c1` (single isomer, unassigned) [Example 3u2], for which the DC50 came out at 4.3 nM. Regarding `CNc1ccn(-c2ccnc3c2cc(CN2CC=C(c4c(F)cc(C(=O)N5CCC(CN6CCN(Cc7ccc8c(c7)n(C)c(=O)n8[C@@H]7CCC(=O)NC7=O)C[C@@H]6C)CC5)cc4F)CC2)n3C)c(=O)c1` (single isomer, unassigned) [Example 3u3], the 50% degradation concentration (DC50) was 1.8 nM.

Take `CNc1ccn(-c2ccnc3c2cc([C@H](C)N2CCC(c4ccc(C(=O)N5CCC(CN6CCN(Cc7ccc8c(c7)C7(CC7)C(=O)N8[C@@H]7CCC(=O)NC7=O)C[C@@H]6C)CC5)cc4)CC2)n3C)c(=O)c1` (single isomer, unassigned) [Example 3u7]: the DC50 worked out at 0.6 nM.

In the case of `Cc1cc(C(=O)N2CCC(CN3CCN(Cc4ccc5c(c4)n(C)c(=O)n5[C@H]4CCC(=O)NC4=O)C[C@@H]3C)CC2)cc(F)c1C1=CCN(Cc2cc3c(-n4ccc5c(c4=O)CCN5)ccnc3n2C)CC1` (single isomer, unassigned) [Example 3u24], the DC50 turned out to be 1.2 nM. With `CNc1ccn(-c2ccnc3c2cc([C@H](C)N2CC=C(c4c(C)cc(C(=O)N5CCC(CN6CCN(Cc7ccc8c(c7)n(C)c(=O)n8[C@@H]7CCC(=O)NC7=O)C[C@@H]6C)CC5)cc4F)CC2)n3C)c(=O)c1` (single isomer, unassigned) [Example 3u34] the figure was 0.3 nM; with `Cc1cc(C(=O)N2CCC(CN3CCN(Cc4ccc5c(c4)n(C)c(=O)n5[C@@H]4CCC(=O)NC4=O)C[C@@H]3C)CC2)cc(F)c1C1CCN(Cc2cc3c(-n4ccc5c(c4=O)CCN5)ccnc3n2C)CC1` (single isomer, unassigned) [Example 3u40], 2.3 nM. Turning to `Cc1cc(C(=O)N2CCC(CN3CCN(Cc4ccc5c(c4)n(C)c(=O)n5[C@H]4CCC(=O)NC4=O)C[C@@H]3C)CC2)cc(F)c1C1CCN(Cc2cc3c(-n4ccc5c(c4=O)CCN5)ccnc3n2C)CC1` (single isomer, unassigned) [Example 3u41], the 50% degradation concentration (DC50) worked out at 6 nM. As for `CNc1ccn(-c2ccnc3c2cc([C@H](C)N2CCC(c4c(F)cc(C(=O)N5CCC(CN6CCN(Cc7ccc8c(c7)C(C)(C)C(=O)N8[C@H]7CCC(=O)NC7=O)C[C@@H]6C)CC5)cc4F)CC2)n3C)c(=O)c1` (single isomer, unassigned) [Example 3u81], the figure is 0.8 nM.

Consider `CNc1ccn(-c2ccnc3c2cc([C@H](C)N2CC=C(c4c(C)cc(C(=O)N5CCC(CN6CCN(Cc7cc8c(cc7F)n([C@H]7CCC(=O)NC7=O)c(=O)n8C7CC7)CC6)CC5)cc4F)CC2)n3C)c(=O)c1` (single isomer, unassigned) [Example 3u104], for which the DC50 worked out at 0.9 nM. As to `CNc1ccn(-c2ccnc3c2cc([C@H](C)N2CC=C(c4c(C)cc(C(=O)N5CCC(CN6CCN(Cc7cc8c(cc7F)n([C@@H]7CCC(=O)NC7=O)c(=O)n8C7CC7)CC6)CC5)cc4F)CC2)n3C)c(=O)c1` (single isomer, unassigned) [Example 3u105], the DC50 turned out to be 1.4 nM. As for `CNc1ccn(-c2ccnc3c2cc([C@H](C)N2CC=C(c4c(C)cc(C(=O)N5CCC(CN6CCN(Cc7ccc8c(c7)n(C7CC7)c(=O)n8[C@H]7CCC(=O)NC7=O)C[C@@H]6C)CC5)cc4F)CC2)n3C)c(=O)c1` (single isomer, unassigned) [Example 3u112], the figure is 0.5 nM; as for `CNc1ccn(-c2ccnc3c2cc([C@H](C)N2CC=C(c4c(C)cc(C(=O)N5CCC(CN6CCN(Cc7ccc8c(c7)n(C7CC7)c(=O)n8[C@@H]7CCC(=O)NC7=O)C[C@@H]6C)CC5)cc4F)CC2)n3C)c(=O)c1` (single isomer, unassigned) [Example 3u113], 0.6 nM; as for `CNc1ccn(-c2ccnc3c2cc([C@H](C)N2CC=C(c4c(C)cc(C(=O)N5CCC(CN6CCN(Cc7ccc8c(c7)n(C7CC7)c(=O)n8[C@H]7CCC(=O)NC7=O)CC6)CC5)cc4F)CC2)n3C)c(=O)c1` (single isomer, unassigned) [Example 3u123], 0.9 nM.

One may read the DC50 as the concentration at which degradation of the target reaches its halfway point.
